pIC50: −log10 of the molar value.
Assays:
Assay type in all cases: cell-based
[1] = test system: Phospho-Rb (Ser807/811) in OVCAR3 cells; experiment: Phospho-Rb expression inhibition in OVCAR3 cells quantified by In Cell Western; details: Homo sapiens, OVCAR-3, 24 hours, read-out: OVCAR-3 pRb IC50
Method: Phospho-Rb Expression Inhibition in OVCAR3 Cells Quantified by in Cell Western
OVCAR3 cells were obtained from American Type Culture Collection (ATCC, HTB-161). OVCAR3 cells were plated in 96-well plates (VWR #10062-900, or Corning #3904) in 90 uL culture medium at a density of 20,000 cells/well in the RPM11640 growth medium containing 10% FBS and 1% Penicillin Streptomycin, and then incubated at 37° C. overnight. The following day, the test compound was administered to the cells by using 1000× compound stock solution prepared in DMSO at various concentrations. 1000× compound stock solution was first diluted in culturing medium to 10x, then 10 uL compound medium was added to each well in the cell plates. After administration of the compound, the cells were then incubated at 37° C. for 24 hours. Upon completion, the cells were washed with PBS briefly. 150 uL/well of 4% formaldehyde was added and the plates were incubated at room temperature for 20 mins. The cells were washed with PBS briefly, and permeabilized with 150 uL/well of ice cold 100% methanol for 10 mins. The cells were washed with PBS briefly and blocked with 100 uL/well LI-COR blocking buffer for 1 hr at room temperature with gentle shaking. The cells were incubated overnight at 4° C. with 50 uL primary antibody rabbit anti-Phospho-Rb (Ser807/811) (1:500, Cell Signaling, #8516) and anti-Rb (1:200, Santa Cruz, sc-73598) diluted in Intercept Blocking Buffer (LI-COR, #927-60001) containing 0.1% Tween 20. The next day, the cells were washed with 200 uL PBS containing 0.1% Tween 20, 5×5 mins at room temperature with gentle shaking, and incubated with 50 uL secondary antibody, IRDye® 800CW Goat anti-Rabbit IgG (1:1000, LI-COR, #926-32211) and IRDye® 680RD Goat anti-Mouse IgG (1:1000, LI-COR, #926-68070), in LI-COR blocking buffer with 0.2% Tween 20 for 1 hr at room temperature with gentle shaking. The cells were washed with 200 uL PBS containing 0.1% Tween 20, 5×5 mins at room temperature with gentle shaking. The cells were washed with PBS for 5 mins. 100 uL fresh PBS was added to each well and the plates were imaged on a LI-COR Odyssey CLX plate reader.

[2] = test system: CCNE1-amplified OVCAR3 cells; experiment: Cell growth inhibition of CCNE1-amplified OVCAR3 cells (CellTiter-Glo); details: Homo sapiens, OVCAR-3, 144 h, 6 days
Method: Cell Growth Inhibition of CCNE1-Amplified OVCAR3 Cells
(§1) OVCAR3 cells were seeded in 96-well plates at 2000 cells/well in 90 μl of RPM11640 growth medium containing 10% FBS and 1% Penicillin Streptomycin, and then incubated at 37° C. overnight. The following day, the test compound was administered to the cells by using 1000× compound stock solution prepared in DMSO at various concentrations. 1000× compound stock solution was first diluted in culturing medium to 10x, then 10 uL compound medium was added to each well in the cell plates. After administration of the compound, the cells were then incubated at 37° C. for 6 days. Upon completion, the plates were equilibrated at room temperature for approximately 10 minutes. 100 ul of CellTiter-Glo® Reagent (Promega) was added to each well. The plates were then incubated at room temperature for 10 minutes and luminescence was recorded by EnSpire plate reader (PerkinElmer).

CCNE1-normal SKOV3 cells = experiment: Cell growth inhibition of CCNE1-normal SKOV3 cells (CellTiter-Glo); details: Homo sapiens, SK-OV-3, 144 h, 6 days
Method: Cell Growth Inhibition of CCNE1-Normal SKOV3 Cells
as §1, with “SKOV3 cells were obtained from American Type Culture Collection (ATCC, HTB-77). SKOV3” for “OVCAR3”, “1000” for “2000”

| SMILES | pIC50 [1] | pIC50 [2] | pIC50 (CCNE1-normal SKOV3 cells) |
| --- | --- | --- | --- |
| CC1CCCOc2cc(ccn2)Nc2cc([nH]n2)[C@H]2CC[C@H](C2)OC(=O)N1 (mixture of isomers) [Compound 8, (1^1S,1^3R,Z)-9-methyl-2^1H-5,12-dioxa-3,10-diaza-4(4,2)-pyridina-2(3,5)-pyrazola-1(1,3)-cyclopentanacyclododecaphan-11-one] | 8.00 to 8.70 | 7.30 to 8.00 | < 5.90 |
| O=C1NC2CC(C2)CC(F)(F)c2cc(ccn2)Nc2cc(n[nH]2)[C@H]2CC[C@H](C2)O1 (single isomer, unassigned) [Compound 169, (1^1S,1^3R,7^1R,7^3S,Z)-5,5-difluoro-2^1H-10-oxa-3,8-diaza-4(4,2)-pyridina-2(3,5)-pyrazola-1(1,3)-cyclopentana-7(1,3)-cyclobutanacyclodecaphan-9-one] | 7.30 to 8.00 | 6.60 to 7.30 | < 5.90 |
| O=C1NCCCCOc2cc(ccn2)Nc2cc([nH]n2)[C@H]2CC[C@H](C2)O1 [Compound 1, (1^1S,1^3R,Z)-2^1H-5,12-dioxa-3,10-diaza-4(4,2)-pyridina-2(3,5)-pyrazola-1(1,3)-cyclopentanacyclododecaphan-11-one] | 7.30 to 8.00 | 7.30 to 8.00 | < 5.90 |
| O=C1NCCCCCOc2cc(ccn2)Nc2cc([nH]n2)[C@H]2CC[C@H](C2)O1 [Compound 3, (1^1S,1^3R,Z)-2^1H-5,13-dioxa-3,11-diaza-4(4,2)-pyridina-2(3,5)-pyrazola-1(1,3)-cyclopentanacyclotridecaphan-12-one] | 7.30 to 8.00 | 6.60 to 7.30 | < 5.90 |
| O=C1NC23CC(COc4cc(ccn4)Nc4cc([nH]n4)[C@H]4CC[C@H](C4)O1)(C2)C3 [Compound 18, (1^1S,1^3R,Z)-2^1H-5,10-dioxa-3,8-diaza-4(4,2)-pyridina-2(3,5)-pyrazola-7(1,3)-bicyclo[1.1.1]pentana-1(1,3)-cyclopentanacyclodecaphan-9-one] | 6.60 to 7.30 | 6.60 to 7.30 | < 5.90 |
| O=C1NC23CC(CCOc4cc(ccn4)Nc4cc([nH]n4)[C@H]4CC[C@H](C4)O1)(C2)C3 [Compound 22, (1^1S,1^3R,Z)-2^1H-5,11-dioxa-3,9-diaza-4(4,2)-pyridina-2(3,5)-pyrazola-8(1,3)-bicyclo[1.1.1]pentana-1(1,3)-cyclopentanacycloundecaphan-10-one] | ≥ 8.70 | ≥ 8.70 | 7.30 to 8.00 |
| O=C1NCCCOC2(CC2)c2cc(ccn2)Nc2cc([nH]n2)[C@H]2CC[C@H](C2)O1 [Compound 26, (1'S,3′R,Z)-spiro[cyclopropane-1,5′-6,12-dioxa-3,10-diaza-4(4,2)-pyridina-2(3,5)-pyrazola-1(1,3)-cyclopentanacyclododecaphan]-11′-one] | 7.30 to 8.00 | 7.30 to 8.00 | 5.90 to 6.60 |
| C[C@H]1CCCOc2cc(ccn2)Nc2[nH]nc(c2Cl)[C@H]2CC[C@H](C2)OC(=O)N1 [Compound 184, (1^1S,1^3R,9S,E)-2^4-chloro-9-methyl-2^1H-5,12-dioxa-3,10-diaza-4(4,2)-pyridina-2(3,5)-pyrazola-1(1,3)-cyclopentanacyclododecaphan-11-one] | < 6.60 | < 6.60 | – |
| [2H]C1([2H])Oc2cc(ccn2)Nc2[nH]nc(c2Cl)[C@H]2CC[C@H](C2)OC(=O)NC2CC1C2 [Compound 222, (1^1S,1^3R,7^1R,7^3S,E)-24-chloro-2^1H-5,10-dioxa-3,8-diaza-4(4,2)-pyridina-2(3,5)-pyrazola-1(1,3)-cyclopentana-7(1,3)-cyclobutanacyclodecaphan-9-one-6,6-d2] | 6.60 to 7.30 | < 6.60 | – |
| C[C@H]1CCCOc2cncc(n2)Nc2cc(n[nH]2)[C@H]2CC[C@H](C2)OC(=O)N1 [Compound 233, (1^1S,1^3R,9S,Z)-9-methyl-2^1H-5,12-dioxa-3,10-diaza-4(2,6)-pyrazina-2(3,5)-pyrazola-1(1,3)-cyclopentanacyclododecaphan-11-one] | ≥ 8.70 | ≥ 8.70 | – |
| C[C@H]1CCCOc2cncc(n2)Nc2[nH]nc(c2F)[C@H]2CC[C@H](C2)OC(=O)N1 [Compound 234, (1^1S,1^3R,9S,E)-2^4-fluoro-9-methyl-2^1H-5,12-dioxa-3,10-diaza-4(2,6)-pyrazina-2(3,5)-pyrazola-1(1,3)-cyclopentanacyclododecaphan-11-one] | 8.00 to 8.70 | 7.30 to 8.00 | – |
| O=C1NC2CC(COc3cncc(n3)Nc3cc(n[nH]3)[C@H]3CC[C@H](C3)O1)C2 [Compound 235, (1^1S,1^3R,7^1R,7^3S,Z)-2^1H-5,10-dioxa-3,8-diaza-4(2,6)-pyrazina-2(3,5)-pyrazola-1(1,3)-cyclopentana-7(1,3)-cyclobutanacyclodecaphan-9-one] | ≥ 8.70 | ≥ 8.70 | – |
| O=C1NC2CC(COc3cncc(n3)Nc3[nH]nc(c3F)[C@H]3CC[C@H](C3)O1)C2 [Compound 236, (1^1S,1^3R,7^1R,7^3S,E)-2^4-fluoro-2^1H-5,10-dioxa-3,8-diaza-4(2,6)-pyrazina-2(3,5)-pyrazola-1(1,3)-cyclopentana-7(1,3)-cyclobutanacyclodecaphan-9-one] | 8.00 to 8.70 | 7.30 to 8.00 | – |
| C[C@H]1CCCOc2cc(ccn2)Nc2[nH]nc(c2F)C2C[C@@H](F)[C@H](C2)OC(=O)N1 [Compound 237, (1^1R,1^3S,1^4R,9S,E)-1^4,2^4-difluoro-9-methyl-2^1H-5,12-dioxa-3,10-diaza-4(4,2)-pyridina-2(3,5)-pyrazola-1(1,3)-cyclopentanacyclododecaphan-11-one] | 7.30 to 8.00 | 6.60 to 7.30 | – |
| C[C@H]1CCCOc2cc(ccn2)Nc2[nH]nc(c2F)C2C[C@H](F)[C@@H](C2)OC(=O)N1 [Compound 238, (1^1S,1^3R,1^4S,9S,E)-1^4,2^4-difluoro-9-methyl-2^1H-5,12-dioxa-3,10-diaza-4(4,2)-pyridina-2(3,5)-pyrazola-1(1,3)-cyclopentanacyclododecaphan-11-one] | 7.30 to 8.00 | 6.60 to 7.30 | – |
| C[C@H]1CCCOc2nccc(n2)Nc2cc(n[nH]2)[C@H]2CC[C@H](C2)OC(=O)N1 [Compound 241, (1^1S,1^3R,9S,Z)-9-methyl-2^1H-5,12-dioxa-3,10-diaza-4(4,2)-pyrimidina-2(3,5)-pyrazola-1(1,3)-cyclopentanacyclododecaphan-11-one] | ≥ 8.70 | ≥ 8.70 | – |
| C[C@H]1CCCOc2nccc(n2)Nc2[nH]nc(c2F)[C@H]2CC[C@H](C2)OC(=O)N1 [Compound 256, (1^1S,1^3R,9S,E)-2^4-fluoro-9-methyl-2^1H-5,12-dioxa-3,10-diaza-4(4,2)-pyrimidina-2(3,5)-pyrazola-1(1,3)-cyclopentanacyclododecaphan-11-one] | 8.00 to 8.70 | 7.30 to 8.00 | – |
| C[C@@H]1CC23CC(C2)(C3)NC(=O)O[C@@H]2CC[C@@H](C2)c2cc(n[nH]2)Nc2cc(nc(C(F)F)c2)O1 [compound 24] | < 6.60 | < 6.60 | – |
| C[C@H]1CC23CC(C2)(C3)NC(=O)O[C@@H]2CC[C@@H](C2)c2cc(n[nH]2)Nc2cc(nc(C(F)F)c2)O1 [compound 25] | < 6.60 | < 6.60 | – |
